According to patent US11225503B2, “Crystobactamides” (HELMHOLTZ-ZENTRUM FÜR INFEKTIONSFORSCHUNG GMBH, priority 2013, dated 2022):
In brackets after ≈: the same amount, converted by molar mass. Where two headings read alike, the source gives them in different places. Bridge positions count the residues as written; N and C are the ends. Square brackets hold non-standard residues; d marks the D form. Peptide text beside a SMILES is read from it. * marks the point of attachment. Ileψ(thiazoline)Cys = CC[C@H](C)[C@H](N)C1=N[C@H](C(=O)*)CS1; dOrn = NCCC[C@@H](N)C(=O)O

Assays:
[1] = test system: Cystobacter velatus MCy8071; assay: Antibiotic resistance of the producer strain; type: cell-based; conditions: final concentration of all antibiotics 50 μg ml^−1
Method: MCy8071 is resistant against the following antibiotics: ampicillin, gentamycin, hygromycin, polymycin, bacitracin, spectinomycin, neomycin, and fusidinic acid. Weak growth is possible with cephalosporin and kasugamycin and no growth is possible with thiostrepton, trimethoprin, kanamycin, and oxytetracycline (final concentration of all antibiotics was adjusted to 50 μg ml^−1).

[2] = test system: E. coli WT; assay: Susceptibility of mutant E. coli strains, MIC; type: cell-based; conditions: Escherichia coli
Source text: (§1) Cystobactamides were screened using a panel of E. coli strains with typical mutations in gyrA and parC genes (Table 11).
High-level quinolone resistance often results from a combination of several target site mutations and altered efflux mechanisms. […] This, in turn, leads to overproduction of MarA and AcrAB and overexpression of the AcrAB efflux pump is associated with the MAR (multiple antibiotic resistance) phenotype.^[5]
(§2) Bacterial wildtype strains used in susceptibility assays were either part of our strain collection or purchased from the German Collection of Microorganisms and Cell Cultures (DSMZ) or from the American Type Culture Collection (ATCC). E. coli strain WT^[6] and E. coli mutants were kindly provided by Prof. Dr. P. Heisig, Pharmaceutical Biology and Microbiology, University of Hamburg.
(§3) MIC values were determined in microdilution assays. Overnight cultures were diluted in the appropriate growth medium to achieve an inoculum of 10^4-10^6 cfu/mL. Yeasts were grown in Myc medium (1% phytone peptone, 1% glucose, 50 mM HEPES, pH 7.0), S. pneumonia and E. faecalis in tryptic soy broth (TSB: 1.7% peptone casein, 0.3% peptone soymeal, 0.25% glucose, 0.5% NaCl, 0.25% K2HPO4; pH 7.3); M. smegmatis in Middlebrook 7H9 medium supplemented with 10% Middlebrook ADC enrichment and 2 ml/l glycerol). All other listed bacteria were grown in Müller-Hinton broth (0.2% beef infusion solids, 1.75% casein hydrolysate, 0.15% starch, pH 7.4). Cystobactamides and reference drugs were added directly to the cultures in sterile 96-well plates as duplicates and serial dilutions were prepared. Microorganisms were grown on a microplate shaker (750 rpm, 30-37° C., 18-48 h), except S. pneumonia, which was grown at non-shaking conditions (37° C., 5% CO2, 18 h). Growth inhibition was assessed by visual inspection and the MIC was defined as the lowest concentration of compound that inhibited visible growth.

[3] = test system: Chromobacterium violaceum DSM-30191; assay: Susceptibility testing, MIC microdilution; type: cell-based; conditions: DSM30191; Chromobacterium violaceum DSM-30191; read-out: MIC
Method: as §2, §3

[4] = test system: Candida albicans DSM-1665; assay: Susceptibility testing, MIC microdilution; type: cell-based; conditions: DSM1665; Candida albicans DSM-1665; read-out: MIC
Method: as §2, §3

[5] = test system: Streptococcus pneumoniae DSM-20566; assay: Susceptibility testing, MIC microdilution; type: cell-based; conditions: DSM20566; Streptococcus pneumoniae DSM-20566; read-out: MIC
Method: as §2, §3

[6] = test system: Staphylococcus aureus ATCC29213; assay: Susceptibility testing, MIC microdilution; type: cell-based; conditions: read-out: MIC
Method: as §2, §3

[7] = test system: Mycobacterium smegmatis mc^2155 ATCC700084; assay: Susceptibility testing, MIC microdilution; type: cell-based; conditions: Mycolicibacterium smegmatis, ATCC700084|MC^2155; Mycobacterium smegmatis mc^2155 ATCC700084; read-out: MIC
Method: as §2, §3

[8] = test system: Pseudomonas aeruginosa PA14; assay: Susceptibility testing, MIC microdilution; type: cell-based
Method: as §2, §3

[9] = test system: Escherichia coli DSM-12242 (NAL^R); assay: Susceptibility testing, MIC microdilution; type: cell-based; conditions: Escherichia coli, DSM12242
Method: as §2, §3

[10] = test system: Escherichia coli DSM-1116; assay: Susceptibility testing, MIC microdilution; type: cell-based; conditions: Escherichia coli DSM-1116
Method: as §2, §3

[11] = test system: Enterobacter aerogenes DSM-30053; assay: Susceptibility testing, MIC microdilution; type: cell-based; conditions: Klebsiella aerogenes, DSM30053; Enterobacter aerogenes DSM-30053; read-out: MIC
Method: as §2, §3

[12] = test system: Micrococcus luteus DSM-1790; assay: Susceptibility testing, MIC microdilution; type: cell-based; conditions: DSM1790; Micrococcus luteus DSM-1790; read-out: MIC
Method: as §2, §3

[13] = test system: Burkholderia cenocepacia DSM-16553; assay: Susceptibility testing, MIC microdilution; type: cell-based; conditions: DSM16553; Burkholderia cenocepacia DSM-16553; read-out: MIC
Method: as §2, §3

[14] = test system: Acinetobacter baumannii DSM-30008; assay: Susceptibility testing, MIC microdilution; type: cell-based; conditions: DSM30008; Acinetobacter baumannii DSM-30008; read-out: MIC
Method: as §2, §3

[15] = test system: Escherichia coli ATCC35218; assay: Susceptibility testing, MIC microdilution; type: cell-based; conditions: read-out: MIC
Method: as §2, §3

[16] = test system: Bacillus subtilis DSM-10; assay: Susceptibility testing, MIC microdilution; type: cell-based; conditions: DSM10; Bacillus subtilis DSM-10; read-out: MIC
Method: as §2, §3

[17] = test system: Escherichia coli DSM-26863 (tolC3); assay: Susceptibility testing, MIC microdilution; type: cell-based
Method: as §2, §3

[18] = test system: Klebsiella pneumoniae DSM-30104; assay: Susceptibility testing, MIC microdilution; type: cell-based; conditions: DSM30104; Klebsiella pneumoniae DSM-30104; read-out: MIC
Method: as §2, §3

[19] = test system: Escherichia coli ATCC25922; assay: Susceptibility testing, MIC microdilution; type: cell-based; conditions: read-out: MIC
Method: as §2, §3

[20] = test system: Enterococcus faecalis ATCC29212; assay: Susceptibility testing, MIC microdilution; type: cell-based; conditions: read-out: MIC
Method: as §2, §3

[21] = test system: Pichia anomala DSM-6766; assay: Susceptibility testing, MIC microdilution; type: cell-based; conditions: Hansenula anomala, DSM6766; Pichia anomala DSM-6766; read-out: MIC
Method: as §2, §3

[22] = test system: Pseudomonas aeruginosa ATCC27853; assay: Susceptibility testing, MIC microdilution; type: cell-based; conditions: read-out: MIC
Method: as §2, §3

[23] = test system: E. coli strain WT III (marR Δ74 bp); assay: Susceptibility of mutant E. coli strains, MIC; type: cell-based; conditions: for factor of MIC increase: E. coli WT III compared to wildtype E. coli DSM-1116; for MIC, in words: E. coli WT III
Method: as §2, §3

[24] = test system: E. coli strain MI (single-step gyrA mutation); assay: Susceptibility of mutant E. coli strains, MIC; type: cell-based; conditions: strain MI, single-step gyrA mutation
Source text: as §1, §2, §3

[25] = test system: E. coli strain WT-3.2 (single-step gyrA mutation); assay: Susceptibility of mutant E. coli strains, MIC; type: cell-based; conditions: strain WT-3.2, single-step gyrA mutation
Source text: as §1, §2, §3

[26] = test system: E. coli strain WT-4 M2.1 (parC mutation); assay: Susceptibility of mutant E. coli strains, MIC; type: cell-based
Source text: as §1, §2, §3

[27] = target: DNA/gyrase complex (Escherichia coli, UniProt P0AES4+P0AES6); conditions: cystobactamide D 18 μM, ciprofloxacin 1 μM
Sequence of DNA/gyrase complex (P0AES4 whole entry, one chain of several): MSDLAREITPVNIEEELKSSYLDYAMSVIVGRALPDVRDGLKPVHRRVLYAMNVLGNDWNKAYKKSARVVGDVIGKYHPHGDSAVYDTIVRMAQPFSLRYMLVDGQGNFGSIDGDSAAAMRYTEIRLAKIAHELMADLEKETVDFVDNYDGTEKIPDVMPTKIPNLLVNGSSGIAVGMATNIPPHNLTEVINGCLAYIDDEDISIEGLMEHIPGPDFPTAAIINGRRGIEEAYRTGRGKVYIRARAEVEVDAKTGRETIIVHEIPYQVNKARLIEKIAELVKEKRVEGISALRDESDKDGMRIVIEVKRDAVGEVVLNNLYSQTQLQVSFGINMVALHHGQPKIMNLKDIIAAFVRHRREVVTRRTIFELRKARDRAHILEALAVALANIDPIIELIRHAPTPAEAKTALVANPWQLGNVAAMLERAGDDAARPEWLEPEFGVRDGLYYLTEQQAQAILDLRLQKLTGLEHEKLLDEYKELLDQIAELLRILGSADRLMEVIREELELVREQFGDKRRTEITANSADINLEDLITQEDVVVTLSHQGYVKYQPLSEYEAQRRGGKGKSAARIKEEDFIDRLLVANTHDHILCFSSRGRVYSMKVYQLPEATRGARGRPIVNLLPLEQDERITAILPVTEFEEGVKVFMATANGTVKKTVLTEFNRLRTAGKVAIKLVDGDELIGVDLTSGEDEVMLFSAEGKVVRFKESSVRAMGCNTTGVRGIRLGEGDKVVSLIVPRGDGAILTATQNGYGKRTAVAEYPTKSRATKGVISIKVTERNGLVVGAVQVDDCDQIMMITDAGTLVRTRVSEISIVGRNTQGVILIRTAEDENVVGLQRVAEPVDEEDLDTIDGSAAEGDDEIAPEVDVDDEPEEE
Method: (B) Here, standard gyrase reactions were inhibited using a constant amount of cystobactamide D and titrated with increasing amounts of ATP. If ATP and cystobactamide D would compete for binding at the ATP binding pocket on the gyrase GyrB subunit, increasing amounts of ATP would lead to the formation of supercoiled plasmid in the assay.
To test if cystobactamides stabilize the covalent complex between DNA gyrase and the nicked DNA substrate, proteinase K linearization assay were performed (see a). […] To detect linearized plasmid bands the relaxed plasmid was digested by the single-cutting restriction enzyme Ndel.

[28] = test system: Chinese hamster ovary CHO-K1 cells; assay: in vitro; type: cell-based
Method: Human HCT-116 colon carcinoma cells (CCL-247) were obtained from the American Type Culture Collection (ATCC) and Chinese hamster ovary CHO-K1 cells (ACC-110) were obtained from the German Collection of Microorganisms and Cell Cultures (DSMZ). Both cell lines were cultured under the conditions recommended by the respective depositor. Primary HUVEC (human umbilical vein endothelial cells; single donor) were purchased from PromoCell (Heidelberg, Germany) and cultured in Endothelial Cell Growth Medium (PromoCell) containing the following supplements: 2% FCS, 0.4% ECGS, 0.1 ng/ml EGF, 1 ng/ml bFGF, 90 μg/ml heparin, 1 μg/ml hydrocortisone.
(§4) Cells were seeded at 6×10^3 cells per well of 96-well plates (Corning CellBind®) in complete medium (180 μl) and directly treated with cystobactamides dissolved in methanol in a serial dilution. Compound were tested in duplicate for 5 d, as well as the internal solvent control. After 5 d incubation, 5 mg/ml MTT in PBS (20 μL) was added per well and it was further incubated for 2 h at 37° C.[7] The medium was then discarded and cells were washed with PBS (100 μl) before adding 2-propanol/10N HCl (250:1, v/v; 100 μl) in order to dissolve formazan granules. The absorbance at 570 nm was measured using a microplate reader (EL808, Bio-Tek Instruments Inc.).

[29] = test system: several microorganisms and cell lines; assay: Biological evaluation, summary statements over the MIC and cytotoxicity tests; type: cell-based; conditions: A. baumannii and P. aeruginosa
Method: as §4, §3

[30] = Escherichia coli DSM-26863 (tolC3)
[31] = Escherichia coli WTIII [marRΔ74bp]

CC1(C)S[C@@H]2[C@H](NC(=O)[C@H](N)c3ccccc3)C(=O)N2[C@H]1C(=O)O [ampicillin]
growth of strain MCy8071 in presence of the antibiotic [1]: resistant

CC[C@H](C)[C@H](N)C1=N[C@H](C(=O)N[C@@H](CC(C)C)C(=O)N[C@H](CCC(=O)O)C(=O)N[C@H](C(=O)N[C@H]2CCCCNC(=O)[C@H](CC(N)=O)NC(=O)[C@@H](CC(=O)O)NC(=O)[C@H](Cc3cnc[nH]3)NC(=O)[C@@H](Cc3ccccc3)NC(=O)[C@H]([C@@H](C)CC)NC(=O)[C@@H](CCCN)NC2=O)[C@@H](C)CC)CS1 [bacitracin] ({Ileψ(thiazoline)Cys}-L[dE]IK[dOrn]I[dF]H[dD]N; lactam 4-C)
growth of strain MCy8071 in presence of the antibiotic [1]: resistant

O=C(O)c1cn(C2CC2)c2cc(N3CCNCC3)c(F)cc2c1=O [ciprofloxacin, reference compound]
MIC [2]: 0.013 µg/mL
MIC [3]: 0.006 µg/mL (≈ 0.0181 µM)
MIC [4]: > 6.4 µg/mL
MIC [5]: 1.6 µg/mL (≈ 4.83 µM)
MIC [6]: 0.1 µg/mL (≈ 0.302 µM)
MIC [7]: 0.4 µg/mL (≈ 1.21 µM)
MIC ([8]; read-out: MIC): 0.1 µg/mL (≈ 0.302 µM)
MIC [9]: 0.05 µg/mL (≈ 0.151 µM)
MIC ([10]; DSM1116, read-out: MIC): 0.006 µg/mL (≈ 0.0181 µM)
MIC [11]: 0.2 µg/mL (≈ 0.604 µM)
MIC [12]: 1.6 µg/mL (≈ 4.83 µM)
MIC [13]: 6.4 µg/mL (≈ 19.3 µM)
MIC [14]: 0.2 µg/mL (≈ 0.604 µM)
MIC [15]: 0.006 µg/mL (≈ 0.0181 µM)
MIC [16]: 0.1 µg/mL (≈ 0.302 µM)
MIC ([17]; Escherichia coli, DSM26863): ≤ 0.003 µg/mL
MIC [18]: 0.025 µg/mL (≈ 0.0754 µM)
MIC [19]: ≤ 0.003 µg/mL
MIC [20]: 0.8 µg/mL (≈ 2.41 µM)
MIC [21]: > 6.4 µg/mL
MIC [22]: 0.1 µg/mL (≈ 0.302 µM)
factor of MIC increase [23]: ~10
factor of reduced susceptibility ([23]; E. coli WT III cp. E. coli WT): ca. 4
MIC ([23]; Escherichia coli): 0.05 µg/mL (≈ 0.151 µM)
factor of MIC increase [24]: ~30
factor of MIC increase [25]: ~30
MIC ([26]; Escherichia coli): 0.025 µg/mL (≈ 0.0754 µM)
increase of the MIC ([26]; strain WT-4 M2.1, parC mutation): two-fold increase
formation of linearized plasmid after proteinase K treatment [27]: formation of linearized plasmid

COC(C(N)=O)C(NC(=O)c1ccc(NC(=O)c2ccc([N+](=O)[O-])cc2)cc1)C(=O)Nc1ccc(C(=O)Nc2ccc(C(=O)Nc3ccc(C(=O)O)cc3)c(O)c2OC(C)C)cc1 (centres unmarked) [cystobactamide F]
MIC [8]: 3.4 µg/mL (≈ 3.95 µM)
MIC [10]: 0.4 µg/mL (≈ 0.464 µM)
MIC [17, 30]: 0.4 µg/mL (≈ 0.464 µM)
MIC, in words [23]: in the μg/ml range
factor of MIC increase [23]: 2
MIC [23, 31]: 0.9 µg/mL (≈ 1.04 µM)
GI50 [28]: > 111 µM
inhibition of pathogenic Gram-negative strains A. baumannii and P. aeruginosa (MIC range) [29]: low μg/ml range

COc1cc(C(=O)O)ccc1NC(=O)c1ccc(NC(=O)c2ccc(NC(=O)C(NC(=O)c3ccc(NC(=O)c4ccc([N+](=O)[O-])cc4)cc3)C(OC)C(N)=O)cc2)c(OC(C)C)c1O (centres unmarked) [cystobactamide G]
MIC [8]: 7.1 µg/mL (≈ 7.96 µM)
MIC [10]: 0.9 µg/mL (≈ 1.01 µM)
MIC [17, 30]: 0.9 µg/mL (≈ 1.01 µM)
MIC, in words [23]: in the μg/ml range
MIC [23, 31]: 3.6 µg/mL (≈ 4.04 µM)
GI50 [28]: 37 to 111 µM
inhibition of pathogenic Gram-negative strains A. baumannii and P. aeruginosa (MIC range) [29]: low μg/ml range

CC(=O)O[C@H]1C[C@@]2(C)[C@@H](C[C@@H](O)[C@H]3[C@@]4(C)CC[C@@H](O)[C@@H](C)[C@@H]4CC[C@@]32C)/C1=C(\CCC=C(C)C)C(=O)O [fusidinic acid]
growth of strain MCy8071 in presence of the antibiotic [1]: resistant
